Measured values as given in article PMC6272295, “In Vitro Neuroprotective Activities of Compounds from Angelica shikokiana Makino” (Molecules, 2015).
Where two headings read alike, the source gives them in different places.

Tests used:
[1] = Scavenging of hydroxyl radical, 2-deoxyribose degradation assay; on Hydroxyl Radical Scavenging (grade): key: +: Weak activity; ++: Strong activity
Description: The inhibitory effect of bioactive compounds on deoxyribose degradation was determined by measuring the competition between deoxyribose and bioactive compounds for the hydroxyl radicals (^.OH) generated from the Fe^3+/ascorbate/EDTA/H2O2 system (referred to non-site-specific assay; the major activity measured is ^.OH scavenging) or an Fe^3+/ascorbate/H2O2 system (referred to as a site-specific assay; major activity measured is metal chelation). Both assays depend on the formation of a highly reactive hydroxyl radical, OH, by the interaction of iron ions with H2O2 through Fenton’s reaction. […] This assay was performed as previously described. Different concentrations of tested compounds were dissolved in 400 µL phosphate buffer (0.2 M, pH 7.4). Then, 50 µL of deoxyribose (60 mM), 50 µL of Na2EDTA (2 mM), 50 µL of FeCl3 (3.2 mM), 50 µL of H2O2 (60 mM) and 50 µL of ascorbic acid (2 mM) were added, and the total volume of the reaction mixture was adjusted to 1 mL with buffer. After water-bath incubation at 50 °C for 25 min, the reaction was terminated by 250 µL of trichloroacetic acid (10%, w/w). […] For site-specific hydroxyl-radical-scavenging activity, the reaction mixture was similar to the above method, except that EDTA was replaced by an equivalent volume of buffer.
IC50 values of isolated compounds in AChEI and scavenging of hydroxyl radical assays were calculated using Probit Analysis (SPSS Version 16.0 for Windows, SPSS Inc., Chicago, IL, USA) for five different concentrations in three independent experiments. Cell viability was expressed as a percentage of MTT reduction, assuming that the viability of cells treated with 1% DMSO as a negative control was 100%. […] All values are the mean ± SD of three independent experiments. Data were analyzed for statistical significance using one-way ANOVA, followed by Dunnet’s test as a post-hoc test with GraphPad Prism 5.0 software for Windows (Inc., San Diego, CA, USA).

neuro-2A cells = assay: Protection against H2O2-induced neurotoxicity (MTT); type: cell-based, Mouse; settings: for neuroprotection against H2O2-induced neurotoxicity (in words): 6.25-100 µM, H2O2 150 µM; for Protection against H2O2: summary Table 4
Description: (§1) Neuro-2A cell line was maintained in Eagle’s Minimum Essential medium supplemented with 10% fetal bovine serum, 1% of 100× antibiotic—antimitotic agents (containing penicillin and streptomycin) in a humid atmosphere of 5% (v/v) CO2 and 95% (v/v) air at 37 °C. Neuro-2A cells were plated in 96-well cell culture plates at a density of 3 × 10^4 cells/well for H2O2 and intracellular ROS assays and 2.5 × 10^3 cells/well for the Aβ25-35-assay.
Cell viability was determined by MTT reduction assay. Briefly, after treatment with isolated compounds, the media was replaced by fresh one after washing the cells with 100 µL PBS and 20 µL of MTT (5 mg/mL) was added to each well. After 4 h incubation at 37 °C, the state of cells was checked under microscope to confirm either cytotoxicity in H2O2 and Aβ25-35 wells or protection in positive controls and isolated compounds ones. The supernatants were aspirated carefully, and 150 µL of DMSO was added to each well to dissolve the dark blue formazan crystals. The absorbance was measured using a microplate reader at 570 nm.
H2O2 interacts with metals in the medium, producing highly cytotoxic hydroxyl radicals that induce neurotoxicity. So, active compounds are those that can scavenge free radicals and increase the cell viability. This assay was performed as previously described with slight modifications. Briefly, the concentration of H2O2 that decreased cell viability to about 50% was determined as follows: cells were cultured in a 96-well plate and after 24 h were further incubated with different concentrations of H2O2 (50, 100, 150, 200 µM) freshly prepared from 30% stock solution. After 24 h, cell viability was determined using the MTT reduction method. H2O2 at a concentration of 150 µM had the desired cytotoxicity and was used for the next step.

[2] = tested on: intracellular ROS in Neuro-2A cells; assay: Scavenging of intracellular reactive oxygen species (Bes-H2O2-AC, DFF fluorescence); type: cell-based, Mouse; settings: for Intracellular ROS Scavenging: summary Table 4; for decrease of DFF fluorescence intensity (intracellular ROS): only at the higher concentration of 100 µM, H2O2 600 µM 30 min; on Intracellular ROS Scavenging: key: +: Weak activity; ++: Strong activity
Description: as §1
This assay was performed as previously described with some modifications. Briefly, Neuro-2A cells were seeded in 96-well Clear Fluorescence Black Plate (number 655090, Greiner Bio-one, Tokyo, Japan). Cells were treated with three different concentrations (25, 50, 100 µM) of the samples. After 2 h incubation, cells were subjected to oxidative stress using 600 µM of H2O2 for 30 min. The nucleus was stained by Hoechst 33342 (Dojindo, Kumamoto, Japan), and the amount of difluorofluorescein (DFF) released from the reaction of H2O2 and BES-H2O2-Ac was taken as an indication of the amount of intracellular H2O2 and ROS. Images of each well were acquired using an IN Cell Analyzer 1000 (GE Healthcare, Buckinghamshire, UK) using 360-nm (Hoechst 33342) and 480-nm (BES-H2O2-Ac) excitation filters and monitored through 460-nm and 535-nm emission filters, respectively. Developer software was used to analyze the images of Hoechst 33342 and BES-H2O2-Ac staining, and the resulting data were then applied to Spotfire Decision Site Client 8.2 software for visualizing the results.

[3] = Fe3+/ascorbate/EDTA/H2O2 system, read-out: IC50 hydroxyl radical scavenging, Non Site-Specific
[4] = Fe3+/ascorbate/H2O2 system without EDTA, read-out: IC50 hydroxyl radical scavenging, Site-Specific
[5] = summary Table 4 (values of the non site-specific assay), read-out: Hydroxyl Radical Scavenging/IC50

Row | SMILES | IC50 [1, 3] [µM] | IC50 [1, 4] [µM] | IC50 [1, 5] [µM] | neuroprotection against H2O2-induced neurotoxicity (in words) (neuro-2A cells) | Protection against H2O2 (neuro-2A cells) | Intracellular ROS Scavenging [2] | decrease of DFF fluorescence intensity (intracellular ROS) [2] | % Inhibition of deoxyribose degradation, Non Site-Specific ([1]; at 300 µM (maximum solubility in phosphate buffer)) [%] | Hydroxyl Radical Scavenging (grade) ([1]; summary Table 4)
1 | O=c1c(OC2OC(CO)C(O)C(O)C2O)c(-c2ccc(O)cc2)oc2cc(O)cc(O)c12 (stereo not shown) [Kaempferol-3-O-glucoside (13), kaempferol-3-O-glucoside] | 1150 ± 6.7 | 1300 ± 24.3 | 1150 ± 6.7 | significant (p < 0.05) increase in cell viability at 100 µM | + | + |  |  | 
2 | O=c1c(O)c(-c2ccc(O)cc2)oc2cc(O)cc(O)c12 [Kaempferol (8), kaempferol] | 720 ± 7.9 | 901 ± 17.9 | 720 ± 7.9 | significant (p < 0.05) increase in cell viability at 100 µM | + | + | decrease the fluorescence intensity |  | 
3 | CC(=O)OC1c2c(ccc3ccc(=O)oc23)OC(C)(C)C1OC(=O)C(C)(O)C(C)O (stereo not shown) [Hyuganin E (6), hyuganin E] |  |  |  | significant (p < 0.05) increase in cell viability at 100 µM | + | + | decrease the fluorescence intensity | 37.5 ± 3.5 | +
